Data: the supplement of paper PMC11451515

Experiments:
Conditions in all cases: 48 h
P12-Ichikawa [1] = test: cell viability relative to DMSO control; higher = less cytotoxic
Summary of the method: (§1)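 NOMO1 or SEM cells were plated at 500 cells/well and P12-Ichikawa cells at 1000 cells/well in 1536-well plates (5 μl), after each leukemia line had been adapted for at least four passages in each medium. Pin dosing delivered library compounds in DMSO at 11 threefold concentrations, 47 μM to 0.79 nM. CellTiter-Glo One luminescence was read after 48 h at 37°C. Viability is reported as a per-plate percentage of DMSO wells, with cell-free wells as background.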

NOMO1 [2] = test: as above
Summary of the method: as §1

SEM cells [3] = test: as above
Summary of the method: as §1

SEM cells [4] = test: AUC of viability dose-response curve (% viability x log10 dose units); higher = less sensitive
Summary of the method: (§2)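 Area under the curve was integrated by trapezoidal rule from a log-logistic fit of normalised viability, with curves exceeding full viability scaled and quality-control failures removed. The fit had four parameters over log10 doses. Viability came from CellTiter-Glo One luminescence, normalised per plate to DMSO and cell-free wells, after leukemia cells adapted to each medium (500 or 1000 cells/well, 1536-well plates) were exposed to library compounds in DMSO for 48 h at 37°C. The 11 threefold doses ran from 47 μM to 0.79 nM.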

P12-Ichikawa [5] = test: as above
Summary of the method: as §2

NOMO1 [6] = test: as above
Summary of the method: as §2

Cc1cnc(Nc2cccc(CN3CCOCC3)c2)nc1Nc1cccc([S+](=O)([O-])NC(C)(C)C)c1
cell viability [%]
Conditions	NOMO1 [2]	P12-Ichikawa [1]	SEM cells [3]
HPLM + 10% dialyzed FBS, 0.000781 µM	87.9	90	77.4
HPLM + 10% dialyzed FBS, 0.00234 µM	99.6	91.9	80.3
HPLM + 10% dialyzed FBS, 0.00702 µM	100	90.5	97.3
HPLM + 10% dialyzed FBS, 0.0211 µM	96.4	96.2	91.7
HPLM + 10% dialyzed FBS, 0.0632 µM	107	91.9	74.4
HPLM + 10% dialyzed FBS, 0.19 µM	108	89.3	72.1
HPLM + 10% dialyzed FBS, 0.569 µM	104	95.1	84.7
HPLM + 10% dialyzed FBS, 1.71 µM	97.8	92.2	36.4
HPLM + 10% dialyzed FBS, 5.12 µM	61.5	44	15.7
HPLM + 10% dialyzed FBS, 15.4 µM	100	91.5	69.1
HPLM + 10% dialyzed FBS, 46.1 µM	84.1	54.4	53.6
RPMI 5 mM glucose + 10% FBS, 0.000781 µM	79.8	91	79.7
RPMI 5 mM glucose + 10% FBS, 0.00234 µM	85.1	87.7	88.8
RPMI 5 mM glucose + 10% FBS, 0.00702 µM	85.4	85.9	94.5
RPMI 5 mM glucose + 10% FBS, 0.0211 µM	94.8	92.2	110
RPMI 5 mM glucose + 10% FBS, 0.0632 µM	83.8	89.8	82.1
RPMI 5 mM glucose + 10% FBS, 0.19 µM	78.1	88.7	87.9
RPMI 5 mM glucose + 10% FBS, 0.569 µM	80.4	80.8	79
RPMI 5 mM glucose + 10% FBS, 1.71 µM	75.2	86.4	58
RPMI 5 mM glucose + 10% FBS, 5.12 µM	35.1	20.5	9.88
RPMI 5 mM glucose + 10% FBS, 15.4 µM	86.3	88.2	74
RPMI 5 mM glucose + 10% FBS, 46.1 µM	85.5	73.4	21.9
RPMI 5 mM glucose + 10% dialyzed FBS, 0.000781 µM	84	80.8	79.6
RPMI 5 mM glucose + 10% dialyzed FBS, 0.00234 µM	96.7	83.2	93.5
RPMI 5 mM glucose + 10% dialyzed FBS, 0.00702 µM	86.2	82.6	93.5
RPMI 5 mM glucose + 10% dialyzed FBS, 0.0211 µM	90.7	79.7	84.9
RPMI 5 mM glucose + 10% dialyzed FBS, 0.0632 µM	88	85.9	72.5
RPMI 5 mM glucose + 10% dialyzed FBS, 0.19 µM	98.6	82.3	64
RPMI 5 mM glucose + 10% dialyzed FBS, 0.569 µM	93.6	85.4	81.8
RPMI 5 mM glucose + 10% dialyzed FBS, 1.71 µM	85.1	81.4	17.9
RPMI 5 mM glucose + 10% dialyzed FBS, 5.12 µM	43.5	41.7	9.6
RPMI 5 mM glucose + 10% dialyzed FBS, 15.4 µM	90.7	76.8	66.4
RPMI 5 mM glucose + 10% dialyzed FBS, 46.1 µM	87.3	53.1	39.3

SEM cells [4]
Conditions	AUC of viability dose-response curve
HPLM + 10% dialyzed FBS	329
RPMI 5 mM glucose + 10% FBS	345
RPMI 5 mM glucose + 10% dialyzed FBS	308

CCOc1cc(N2CCC(O)CC2)ccc1Nc1ncc2c(n1)N(C)c1ccccc1C(=O)N2C
SEM cells [3], HPLM + 10% dialyzed FBS
Conditions	cell viability [%]
0.000781 µM	106
0.00234 µM	117
0.00702 µM	133
0.0211 µM	126
0.0632 µM	130
0.19 µM	133
0.569 µM	139
1.71 µM	146
5.12 µM	119
15.4 µM	94.9
46.1 µM	7.22

AUC of viability dose-response curve
Conditions	NOMO1 [6]	P12-Ichikawa [5]	SEM cells [4]
HPLM + 10% dialyzed FBS	321	350	441
RPMI 5 mM glucose + 10% FBS	301	352	421
RPMI 5 mM glucose + 10% dialyzed FBS	318	370	428

OC(=O)CNC(=O)\C1=C(/O)C2=CC=CC=C2N(CC3=CC=CC=C3)C1=O
cell viability [%]
Conditions	NOMO1 [2]	P12-Ichikawa [1]	SEM cells [3]
HPLM + 10% dialyzed FBS, 0.000781 µM	98.2	97.6	106
HPLM + 10% dialyzed FBS, 0.00234 µM	109	113	104
HPLM + 10% dialyzed FBS, 0.00702 µM	92	102	105
HPLM + 10% dialyzed FBS, 0.0211 µM	112	104	125
HPLM + 10% dialyzed FBS, 0.0632 µM	108	104	54
HPLM + 10% dialyzed FBS, 0.19 µM	97.7	100	99.2
HPLM + 10% dialyzed FBS, 0.569 µM	105	105	116
HPLM + 10% dialyzed FBS, 1.71 µM	87.3	101	104
HPLM + 10% dialyzed FBS, 5.12 µM	109	101	111
HPLM + 10% dialyzed FBS, 15.4 µM	101	103	102
HPLM + 10% dialyzed FBS, 46.1 µM	93.6	39.4	106
RPMI 5 mM glucose + 10% FBS, 0.000781 µM	83.7	98.7	98.1
RPMI 5 mM glucose + 10% FBS, 0.00234 µM	89.5	108	103
RPMI 5 mM glucose + 10% FBS, 0.00702 µM	100	113	117
RPMI 5 mM glucose + 10% FBS, 0.0211 µM	91.7	114	112
RPMI 5 mM glucose + 10% FBS, 0.0632 µM	96.3	108	17.9
RPMI 5 mM glucose + 10% FBS, 0.19 µM	93	101	104
RPMI 5 mM glucose + 10% FBS, 0.569 µM	96.2	102	107
RPMI 5 mM glucose + 10% FBS, 1.71 µM	83.5	107	94.7
RPMI 5 mM glucose + 10% FBS, 5.12 µM	84.9	93	106
RPMI 5 mM glucose + 10% FBS, 15.4 µM	85.1	97.2	97.4
RPMI 5 mM glucose + 10% FBS, 46.1 µM	86.4	92.8	88.9
RPMI 5 mM glucose + 10% dialyzed FBS, 0.000781 µM	93	90.4	121
RPMI 5 mM glucose + 10% dialyzed FBS, 0.00234 µM	94.6	97.9	116
RPMI 5 mM glucose + 10% dialyzed FBS, 0.00702 µM	87.9	104	111
RPMI 5 mM glucose + 10% dialyzed FBS, 0.0211 µM	101	95.1	106
RPMI 5 mM glucose + 10% dialyzed FBS, 0.0632 µM	95.7	93.1	89.3
RPMI 5 mM glucose + 10% dialyzed FBS, 0.19 µM	94	94.4	117
RPMI 5 mM glucose + 10% dialyzed FBS, 0.569 µM	97.2	94	119
RPMI 5 mM glucose + 10% dialyzed FBS, 1.71 µM	102	93.1	114
RPMI 5 mM glucose + 10% dialyzed FBS, 5.12 µM	94.7	95.8	105
RPMI 5 mM glucose + 10% dialyzed FBS, 15.4 µM	93	94.5	86.3
RPMI 5 mM glucose + 10% dialyzed FBS, 46.1 µM	74.3	5.26	109

AUC of viability dose-response curve
Conditions	HPLM + 10% dialyzed FBS	RPMI 5 mM glucose + 10% FBS	RPMI 5 mM glucose + 10% dialyzed FBS
NOMO1 [6]	466	430	450
P12-Ichikawa [5]	462	456	433

CC(C)c1cccc(C(C)C)c1O
AUC of viability dose-response curve
Conditions	NOMO1 [6]	P12-Ichikawa [5]	SEM cells [4]
HPLM + 10% dialyzed FBS	463	453	453
RPMI 5 mM glucose + 10% FBS	453	463	459
RPMI 5 mM glucose + 10% dialyzed FBS	455	447	469

COc1cccc2c1C(=O)c1c(O)c3c(c(O)c1C2=O)C[C@@](O)(C(=O)CO)C[C@@H]3O[C@H]1C[C@H](N)[C@@H](O)[C@H](C)O1
AUC of viability dose-response curve
Conditions	NOMO1 [6]	P12-Ichikawa [5]	SEM cells [4]
HPLM + 10% dialyzed FBS	369	364	359
RPMI 5 mM glucose + 10% FBS	362	359	309
RPMI 5 mM glucose + 10% dialyzed FBS	365	363	327
